Read-outs that look alike come from different tables or passages of the source.
Tests used:
[1] = system: Phytophthora infestans; assay: whole plant or invertebrate; assay type: in vivo; settings: in Solanum lycopersicum, foliar, read-out: inhibit fungal infestation (percent disease control compared to untreated)
[2] = system: Blumeria graminis f. sp. tritici (Erysiphe graminis f. sp. tritici); assay: Blumeria graminis f. sp. tritici / wheat / leaf disc preventative (powdery mildew on wheat); assay type: in vivo; settings: foliar, wheat leaf segments cv. Kanzler, inoculated 1 day after application, assessed 6-8 days after application, read-out: inhibit fungal infestation (percent disease control compared to untreated)
Method: Leaf disks of various plant species (diameter 14 mm) are cut from plants grown in the greenhouse. The cut leaf disks are placed in multiwell plates (24-well format) onto water agar. Immediately after cutting the leaf disks are sprayed with a test solution.
Compounds to be tested are prepared as DMSO solutions (max. 10 mg/ml). Just before spraying the solutions are diluted to the appropriate concentrations with 0.025% Tween20. After drying, the leaf disks are inoculated with a spore suspension of the appropriate pathogenic fungus.
After an incubation time of 3-7 days after inoculation at defined conditions (temp, rH, light, etc.) according to the respective test system, the activity of the test compound is assessed as antifungal activity.
Wheat leaf segments cv. Kanzler are placed on agar in a multiwell plate (24-well format) and sprayed with the formulated test compound diluted in water. The leaf disks are inoculated by shaking powdery mildew infected plants above the test plates 1 day after application. The inoculated leaf disks are incubated at 20° C. and 60% rh under a light regime of 24 h darkness followed by 12 h light/12 h darkness in a climate chamber and the activity of a compound is assessed as percent disease control compared to untreated when an appropriate level of disease damage appears on untreated check leaf segments (6-8 days after application).

[3] = system: Pythium ultimum; assay: Pythium ultimum / liquid culture (seedling damping off); assay type: cell-based; settings: Globisporangium ultimum, liquid culture in PDB, 24° C., 2-3 days after application, read-out: inhibit fungal infestation (inhibition of growth determined photometrically)
Method: Mycelia fragments or conidia suspensions of a fungus, prepared either freshly from liquid cultures of the fungus or from cryogenic storage, are directly mixed into nutrient broth. DMSO solutions of the test compound (max. 10 mg/ml) is diluted with 0.025% Tween20 by factor 50 and 10 μl of this solution is pipetted into a microtiter plate (96-well format) and the nutrient broth containing the fungal spores/mycelia fragments is then added to give an end concentration of the tested compound. The test plates are incubated at 24° C. and 96% rH in the dark. The inhibition of fungal growth is determined photometrically after 2-6 days and antifungal activity is calculated.
Mycelia fragments and oospores of a newly grown liquid culture of the fungus are directly mixed into nutrient broth (PDB potato dextrose broth). After placing a (DMSO) solution of test compound into a microtiter plate (96-well format), the nutrient broth containing the fungal mycelia/spore mixture is added. The test plates are incubated at 24° C. and the inhibition of growth is determined photometrically 2-3 days after application.

## CCc1cnc2c(Cl)cc(OC(SC)C(=O)NC3CCC3)cc2c1 (stereo not shown)
other
  melting point: 154 to 156 °C

## CC#CC(C)(C)NC(=O)C(Oc1cc(Cl)c2ncc(CC)cc2c1)SC (stereo not shown)
other
  melting point: 186 to 188 °C

## C=Cc1cnc2c(Cl)cc(OC(CC)C(=O)NC(C)(C)C)cc2c1 (stereo not shown)
other
  melting point: 100 to 102 °C

## C=Cc1cnc2c(Cl)cc(OC(SC)C(=O)NC(C)(C)C#N)cc2c1 (stereo not shown)
other
  melting point: 138 to 141 °C

## CSC(Oc1ccc2ncc(C)cc2c1)C(=O)NC(C)(C)C (stereo not shown) [Compound 1, N-tert-Butyl-2-(3-methyl-quinolin-6-yloxy)-2-methylsulfanyl-acetamide]
[1]
  inhibition at 200 ppm: ≥ 80%
[2]
  inhibition at 200 ppm: ≥ 80%
[3]
  inhibition at 200 ppm: ≥ 80%
other
  melting point: 126 to 127 °C

## COCC#CC(C)(C)NC(=O)C(Oc1ccc2ncc(C)cc2c1)SC (stereo not shown) [Compound 4, N-(4-Methoxy-1,1-dimethyl-but-2-ynyl)-2-(3-methyl-quinolin-6-yloxy)-2-methylsulfanyl-acetamide]
[1]
  inhibition at 200 ppm: ≥ 80%
[2]
  inhibition at 200 ppm: ≥ 80%
[3]
  inhibition at 200 ppm: ≥ 80%
other
  melting point: 100 to 102 °C

## CCC(C)(C)NC(=O)C(Oc1ccc2ncc(C)cc2c1)SC (stereo not shown) [Compound 5, N-(1,1-Dimethyl-propyl)-2-(3-methyl-quinolin-6-yloxy)-2-methylsulfanyl-acetamide]
[1]
  inhibition at 200 ppm: ≥ 80%
[3]
  inhibition at 200 ppm: ≥ 80%
other
  melting point: 103 to 104 °C

## COCC(C)(C#N)NC(=O)C(Oc1cc(C)c2ncc(C)cc2c1)SC (stereo not shown) [Compound 11, N-(1-Cyano-2-methoxy-1-methyl-ethyl)-2-(3,8-dimethyl-quinolin-6-yloxy)-2-methylsulfanyl-acetamide]
[2]
  inhibition at 200 ppm: ≥ 80%
[3]
  inhibition at 200 ppm: ≥ 80%
other
  melting point: 115 to 117 °C

## CCc1cnc2ccc(OC(CC)C(=O)NC(C)(C)C#CCOC)cc2c1 (stereo not shown) [Compound 29, 2-(3-Ethyl-quinolin-6-yloxy)-N-(4-methoxy-1,1-dimethyl-but-2-ynyl)-butyramide]
[1]
  inhibition at 200 ppm: ≥ 80%
[2]
  inhibition at 200 ppm: ≥ 80%
[3]
  inhibition at 200 ppm: ≥ 80%
other
  melting point: 99 to 101 °C

## CCc1cnc2ccc(OC(CC)C(=O)NC3(C)CCC3)cc2c1 (stereo not shown) [Compound 30, 2-(3-Ethyl-quinolin-6-yloxy)-N-(1-methyl-cyclobutyl)-butyramide]
[1]
  inhibition at 200 ppm: ≥ 80%
[2]
  inhibition at 200 ppm: ≥ 80%
[3]
  inhibition at 200 ppm: ≥ 80%
other
  melting point: 110 to 112 °C

## CCc1cnc2ccc(OC(CC)C(=O)NC(C)(C)/C=N/OC)cc2c1 (stereo not shown) [Compound 31]
[1]
  inhibition at 200 ppm: ≥ 80%
[2]; in Triticum aestivum
  inhibition at 200 ppm: ≥ 80%
[3]
  inhibition at 200 ppm: ≥ 80%
other
  melting point: 125 to 127 °C

## CCc1cnc2ccc(OC(CC)C(=O)NC(C)(C#N)COC)cc2c1 (stereo not shown) [Compound 32, N-(1-Cyano-2-methoxy-1-methyl-ethyl)-2-(3-ethyl-quinolin-6-yloxy)-butyramide]
[2]
  inhibition at 200 ppm: ≥ 80%
other
  melting point: 114 to 117 °C

## C=Cc1cnc2c(F)cc(OC(SC)C(=O)NC(C)CC)cc2c1 (stereo not shown) [Compound 38, N-sec-Butyl-2-(8-fluoro-3-vinyl-quinolin-6-yloxy)-2-methylsulfanyl-acetamide]
[2]
  inhibition at 200 ppm: ≥ 80%
[3]
  inhibition at 200 ppm: ≥ 80%
other
  melting point: 110 to 112 °C

## C=Cc1cnc2ccc(OC(CC)C(=O)NC(C)(C#N)COC)cc2c1 (stereo not shown) [Compound 39, N-(1-Cyano-2-methoxy-1-methyl-ethyl)-2-(3-vinyl-quinolin-6-yloxy)-butyramide]
[2]
  inhibition at 200 ppm: ≥ 80%
[3]
  inhibition at 200 ppm: ≥ 80%
other
  melting point: 120 to 125 °C

## C=Cc1cnc2c(Cl)cc(OC(OC)C(=O)NC(C)C)cc2c1 (stereo not shown) [Compound 40, 2-(8-Chloro-3-vinyl-quinolin-6-yloxy)-N-iso-propyl-2-methoxy-acetamide]
[2]
  inhibition at 200 ppm: ≥ 80%
other
  melting point: 108 to 112 °C

— US20130096156A1 (priority 2010, published 2013)
